Measurements reported in ChEMBL document CHEMBL1201862, “PubChem BioAssay data set” (2004).
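1) Cells in 96-well plates. 2) Compound, 48 h, 5 concentrations. 3) Linear interpolation between surrounding doses. 4) Unreached endpoint = highest concentration. Abbreviation: GI50, concentration required for 50% inhibition of growth.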 Calls of active or inactive are those of the source. Rule as the data show it: active = GI50 up to about 1.1 µM and inactive = higher.

Columns and labels:
Experiment in all cases: growth of human tumour cells (NCI), 48 h
[1] = tested on: MDA-MB-231
[2] = tested on: MOLT-4
[3] = tested on: HT-29
[4] = tested on: MCF7
[5] = tested on: UACC-257
[6] = tested on: HCT-116
[7] = tested on: CCRF-CEM
[8] = tested on: SR
[9] = tested on: SN12C
[10] = tested on: SNB-19
[11] = tested on: OVCAR-3
[12] = tested on: TK-10
[13] = tested on: MDA-N
[14] = tested on: NCI-H460
[15] = tested on: NCI-H23
[16] = tested on: LOX IMVI
[17] = tested on: NCI-H226
[18] = tested on: HOP-92
[19] = tested on: SK-MEL-2

Measured: GI50

OC(c1ccc(-c2ccccc2)cc1)(c1ccc(-c2ccccc2)cc1)c1ccc(-c2ccccc2)cc1
inactive: [1] 53.7 µM | [2] 28.6 µM | [3] > 100 µM | [4] > 100 µM | [5] > 100 µM | [6] > 100 µM | [7] > 10 µM | [8] > 100 µM | [9] > 100 µM | [10] > 100 µM | [11] > 100 µM | [12] > 100 µM | [13] > 100 µM | [14] > 100 µM | [15] > 100 µM | [16] > 100 µM

O=c1cc(NNc2ccc3ccccc3c2)[nH]c(=S)[nH]1
inactive: [1] 42.8 µM | [3] 16.4 µM | [4] 4.31 µM | [5] > 100 µM | [6] 39.9 µM | [8] 29.7 µM | [9] 34.8 µM | [10] 94.8 µM | [11] 19.3 µM | [12] > 100 µM | [13] 45.6 µM | [14] 40.9 µM | [17] > 100 µM | [15] > 100 µM | [16] 13 µM | [18] 28.1 µM

O=C(CN1CCCCC1)c1ccc2[nH]c(=O)oc2c1
inactive: [1] > 100 µM | [2] > 100 µM | [3] > 100 µM | [4] > 100 µM | [5] > 100 µM | [6] > 100 µM | [7] > 100 µM | [8] > 100 µM | [9] > 100 µM | [10] > 100 µM | [19] > 100 µM | [11] > 100 µM | [12] > 100 µM | [13] > 100 µM | [14] > 100 µM | [17] > 100 µM | [15] > 100 µM | [16] > 100 µM

COc1ccc(C2C3=C(Nc4ncnn42)c2ccccc2OC3c2ccccc2)cc1 (stereo unspecified)
inactive: [1] 49.1 µM | [2] 6.27 µM | [4] 13.5 µM | [5] 70 µM | [6] 18.9 µM | [8] 8.47 µM | [9] > 100 µM | [10] > 100 µM | [19] 6 µM | [11] 27.8 µM | [13] 11 µM | [14] 27.2 µM | [15] 43.6 µM | [16] 61.8 µM

CCCn1cnc2c(/N=N/O)ncnc21
inactive: [1] > 100 µM | [2] > 100 µM | [3] > 100 µM | [4] > 100 µM | [6] > 100 µM | [8] > 100 µM | [10] > 100 µM | [11] > 100 µM | [12] > 100 µM | [13] > 100 µM | [14] > 100 µM | [17] > 100 µM | [15] > 100 µM | [18] > 100 µM

N#C[C@H](c1nc2ccccc2s1)c1nc2ccccc2nc1Cl
inactive: [1] > 100 µM | [2] > 100 µM | [3] > 100 µM | [4] 5.56 µM | [5] 14.7 µM | [6] > 100 µM | [7] > 100 µM | [8] > 100 µM | [9] > 100 µM | [10] > 100 µM | [19] 33.7 µM | [11] 17.2 µM | [13] > 100 µM | [14] 18.6 µM | [17] > 100 µM | [15] 15.3 µM | [18] 19.1 µM

CC(=O)/N=C1\N/C(=C\c2ccc(Cl)cc2)C(=O)N1/C=C1\C(=O)Oc2ccccc2C1=O
inactive: [1] > 100 µM | [2] > 100 µM | [3] > 100 µM | [4] > 100 µM | [5] > 100 µM | [6] > 100 µM | [7] > 100 µM | [8] 52.2 µM | [9] > 100 µM | [10] > 100 µM | [19] > 100 µM | [11] 77.8 µM | [13] > 100 µM | [14] > 100 µM | [17] > 100 µM | [15] > 100 µM | [16] > 100 µM

O=c1ccc2nc3ccc(O)cc3oc-2c1
inactive: [1] > 100 µM | [2] 34 µM | [3] 24 µM | [4] 5.07 µM | [5] 8.69 µM | [6] 16.4 µM | [7] 34 µM | [9] > 100 µM | [10] 38.6 µM | [19] 12.8 µM | [11] 10.5 µM | [12] > 72.1 µM | [13] 1.91 µM | [14] 12 µM | [17] 27.8 µM | [15] 3.56 µM | [16] 2.75 µM | [18] > 100 µM

O=C(/C=C/c1ccc2c(c1)OCO2)CC(=O)C(=O)c1c[nH]c2ccccc12
inactive: [1] 39.4 µM | [2] 20.7 µM | [3] 36.3 µM | [4] 32.2 µM | [5] 51.8 µM | [6] 31.8 µM | [7] 26.7 µM | [8] 31.6 µM | [9] 45.8 µM | [10] 46.2 µM | [19] > 100 µM | [11] 32 µM | [12] 38.4 µM | [13] 27.9 µM | [14] 33.7 µM | [15] 34.2 µM | [16] 40.2 µM | [18] 81.7 µM

Cc1cc2c(nn1)CCc1c-2no[n+]1[O-]
inactive: [1] > 100 µM | [2] > 100 µM | [3] > 100 µM | [4] > 100 µM | [5] > 100 µM | [6] > 100 µM | [7] > 100 µM | [8] > 100 µM | [9] > 100 µM | [10] > 100 µM | [19] 50.1 µM | [11] > 100 µM | [12] > 100 µM | [13] > 100 µM | [14] > 100 µM | [17] > 100 µM | [15] > 100 µM | [16] > 100 µM

O=C(O)CCSCc1ccc(I)cc1
inactive: [1] > 100 µM | [2] > 100 µM | [3] > 100 µM | [4] > 100 µM | [5] > 100 µM | [6] > 100 µM | [7] > 100 µM | [9] > 100 µM | [10] > 100 µM | [19] > 100 µM | [11] > 100 µM | [12] > 100 µM | [13] > 100 µM | [14] > 100 µM | [17] > 100 µM | [15] > 100 µM | [16] > 100 µM | [18] > 100 µM

O=C(Cc1ccccc1)N/N=C1\C(=O)Nc2ccccc21
inactive: [1] 18.8 µM | [2] > 100 µM | [3] > 100 µM | [4] 49.8 µM | [5] > 100 µM | [6] > 100 µM | [7] > 100 µM | [8] > 100 µM | [9] 48.5 µM | [10] > 100 µM | [19] > 100 µM | [11] > 100 µM | [12] > 100 µM | [13] > 100 µM | [14] > 100 µM | [17] 71.9 µM | [15] 95.5 µM
